Measured values taken from publication PMC8009417, “Selective killing of homologous recombination-deficient cancer cell lines by inhibitors of the RPA:RAD52 protein-protein interaction” (PLoS ONE, 2021).

How the values were obtained:
[1] = system: BRCA1-deficient HCC1937 breast cancer cells (empty vector, BRCA1-); test: Cell viability assay (PrestoBlue, 72 h), HCC1937 with empty vector; assay type: cell-based; conditions: Homo sapiens, estimated from the graphs
Method: (§1) Fig 2 BRCA1-deficient HCC1937 breast cancer cell line survival assay. BRCA1-deficient HCC1937 cells corrected with wild-type BRCA1 gene (BRCA1+; closed triangle), and with an empty vector (BRCA1-; closed circle) were examined. For each experiment (Figs 2–4), cell lines were treated with nine concentrations of (A) quinacrine, (B) mitoxantrone, and (C) doxorubicin in 96-well culture plates at 5x10^3 cell/well density. Each treatment point was made in sextuplicate. Treated cells were incubated for 72 hours at 37°C before assessing cell viability using PrestoBlue. Data were normalized to vehicle control. The experiment was repeated three times. Error bars indicate the standard deviation.
(§2) The HCC1937 cell line (a gift from Dr. Simon Powell Memorial Sloan Kettering (MSK), New York) was derived from a mammary gland primary ductal carcinoma at the early onset of a tumor. This TNBC patient carried a germline mutation in BRCA1, resulting in carboxy-terminal truncated protein and loss of the second BRCA1 allele. BRCA1-restored and empty vector cell lines were also obtained by transfection of a vector containing a full-length human BRCA1 cDNA or an empty vector, respectively. The HCC1937 cell lines were cultured as described.
(§3) Cells were seeded 5 x 10^3 cells per well in 96-well plates in a 90 μL volume per well one day before treatment. Cells in 96-well plates were incubated with increasing concentrations of the compound or vehicle control (1% DMSO) for 72 hours. Each treatment plate contained nine concentrations of a compound in sextuplicate. Growth inhibition was determined using PrestoBlue reagent (Life Technologies, #A13261). Fluorescent measurements were taken using a Spectramax M5 plate reader (MDS). To assess cells’ replication in the absence of compounds as a control, six wells on each plate were treated with vehicle to be read in triplicate at the initial treatment day (T0) and at 72-hour read (T100).

[2] = system: HCC1937 cells corrected with wild-type BRCA1 gene (BRCA1+); test: Cell viability assay (PrestoBlue, 72 h), HCC1937+BRCA1; assay type: cell-based; conditions: Homo sapiens, estimated from the graphs
Method: as §1, §2, §3

[3] = system: UWB1.289 cells corrected with wild-type BRCA1 gene (BRCA1+); test: Cell viability assay (PrestoBlue, 72 h), UWB1.289+BRCA1; assay type: cell-based; conditions: Homo sapiens, UWB1289, estimated from the graphs
Text: (§4) BRCA1-deficient UWB1.289 cells corrected with wild-type BRCA1 gene (BRCA1+; closed triangle) and parental BRCA1-deficient UWB1.289 (BRCA1-; closed circle). Two PARPi-resistant cell lines derived from UWB1.289, UWB1.289.SYr12 (closed diamond) and UWB1.SYr13 (X), were also examined.
(§5) UWB1.289 (a gift from Dr. Lee Zou, Harvard Medical School, Boston, MA) were derived from a serous ovarian carcinoma with a germline BRCA1 mutation and a deletion of the wild-type allele. […] Two PARP-resistant cell lines, SYr12 and SYr13, were derived from the UWB1.289. The Mammary Epithelial growth media, along with SupplementMix solution for UWB1 cell lines, were obtained from PromoCell GmbH and mixed as described.
as §3

[4] = system: PARPi-resistant UWB1.289.SYr12 cells; test: Cell viability assay (PrestoBlue, 72 h), UWB1.289.SYr12; assay type: cell-based; conditions: Homo sapiens, estimated from the graphs
Text: as §4, §5, §3

[5] = system: PARPi-resistant UWB1.SYr13 cells; test: Cell viability assay (PrestoBlue, 72 h), UWB1.SYr13; assay type: cell-based; conditions: Homo sapiens, estimated from the graphs
Text: as §4, §5, §3

[6] = system: BRCA2-deficient PE01 ovarian cancer cells (BRCA2-); test: Cell viability assay (PrestoBlue, 72 h), PE01; assay type: cell-based; conditions: Homo sapiens, estimated from the graphs
Method: BRCA2-deficient PE01 cell line (a gift from Dr. Toshiyasu Taniguchi, Tokai University, Japan) were derived from an ovarian cancer patient. BRCA2-proficient “revertant” cell line, C4-2 is one of eight clones derived from PE01 that has acquired resistance to both cisplatin and PARPi due to a secondary mutation that restored the BRCA2 function. PE01 and PE01 C4-2 were grown and maintained in DMEM high glucose (Hyclone) supplemented with 10% Fetal Bovine Serum (FBS, Invitrogen).
as §3

[7] = system: single-strand annealing (SSA) in U2OS-SA cells; test: Cell-based DSB repair assay, SSA (SA-GFP reporter, FACS); conditions: 4 nM, 2 h pre-treatment, three days
Method: (§6) (A) The effect of mitoxantrone (MX) on SSA and HR were studied with cell-based DSB repair assays. U2OS-SA and U2OS-DR cells were pre-treated with mitoxantrone for two hours before transfection of the SceI-expression plasmid. Then cells were grown in the presence of mitoxantrone for three days. DSB repair activities were determined by (B) FACS analysis. […] U2OS-SA cells were pre-treated with indicated concentrations of mitoxantrone for two hours, before I-SceI-expression vector transfection. After 72 hours incubation, the cells were harvested, and lysates were prepared. Lysate from each treatment was analyzed by 12% SDS-PAGE and the expression levels of I-SceI was determined by the western blot using anti-HA antibody. The p70 of RPA was used as a loading control. Ratios of I-SceI to p70 was obtained with ImageJ and are shown at the bottom of the image. C: control experiment without the addition of mitoxantrone. (D, E) Analysis of DSB repair activiies by western blots. […] At least three independent experiments were performed. Error bars represent standard deviations.

[8] = system: homologous recombination (HR) in U2OS-DR cells; test: Cell-based DSB repair assay, HR (DR-GFP reporter, FACS); conditions: 4 nM, 2 h pre-treatment, three days
Method: as §6

[9] = system: GFP-RAD52 foci in PE01 C4-2 cells; test: Radiation-induced GFP-RAD52 foci formation; assay type: cell-based, human; conditions: 3 nM pre-treatment, 15 Gy X-ray
Method: (§7) Cells without mitoxantrone and radiation (labeled C) were controls. The average percent of cells with foci (more than 5 foci per cell) are graphed from three independent experiments. More than 30 cells per experiment were analyzed. Error bars represent standard deviation.
(§8) Each cell line was seeded on a coverslip at 10^5 cells per well in a 24-well plate. After the 24 hour incubation, the cells were pre-incubated with mitoxantrone for 2 hours, then irradiated with X-ray at 15 Gy with the RS-2000 Irradiator. After 2~ 8 hours of the irradiation, the cells were fixed in 10% formaldehyde solution at room temperature for 30 min, followed by 10 min incubation in PBS containing 0.5% Triton X-100. After staining with 1 μg/ml H1399 Hoechst dye solution, each coverslip was mounted on a slide. GFP proteins were detected with a Zeiss 710 Confocal Laser Scanning Microscope, and images were processed using Zeiss ZEN software. A cell contained more than 5 foci was considered as positive.

[10] = system: GFP-RAD51 foci in PE01 C4-2 cells; test: Radiation-induced GFP-RAD51 foci formation; assay type: cell-based, human; conditions: 3 nM pre-treatment, 15 Gy X-ray
Method: as §7, §8

[11] = system: BRCA2-revertant PE01 C4-2 cells (BRCA2+); test: Cell viability assay (PrestoBlue, 72 h), PE01 C4-2; conditions: Homo sapiens, C4-2, 72 h, read-out: EC50, cell viability

What does the source list for `O=C1c2c(O)ccc(O)c2C(=O)c2c(NCCNCCO)ccc(NCCNCCO)c21` [Mitoxantrone, mitoxantrone]?
EC50 [1]: 800 nM; EC50 [2]: > 5000 nM; EC50 [3]: 3000 nM; EC50 [4]: 2400 nM; EC50 [5]: 2500 nM; EC50 [6]: 100 nM; inhibition at 0.004 µM [7]: 72%; HR suppression [8]: 40% ± 7%; Effect on radiation-induced RAD52 foci formation [9]: inhibited the radiation-induced RAD52 foci formation; Effect on radiation-induced RAD51 foci formation [10]: did not suppress the radiation-induced RAD51 foci formation; EC50 [11]: 400 nM
